In publication PMC10514295, “Imidazo[1,2-c]quinazolines as a novel and potent scaffold of α-glucosidase inhibitors: design, synthesis, biological evaluations, and in silico studies” (Scientific Reports, 2023):

Legend:
[1] = target: T1, Saccharomyces cerevisiae α-glucosidase (Saccharomyces cerevisiae, UniProt P53341); assay: biochemical; conditions: mean ± SD, at least three experiments; substrate p-nitrophenyl glucopyranoside, pH 6.8, 37 °C; read-out: IC50 (in vitro α-glucosidase inhibitory activity)
T1 construct: purchased Sigma-Aldrich
T1 sequence (P53341 whole entry): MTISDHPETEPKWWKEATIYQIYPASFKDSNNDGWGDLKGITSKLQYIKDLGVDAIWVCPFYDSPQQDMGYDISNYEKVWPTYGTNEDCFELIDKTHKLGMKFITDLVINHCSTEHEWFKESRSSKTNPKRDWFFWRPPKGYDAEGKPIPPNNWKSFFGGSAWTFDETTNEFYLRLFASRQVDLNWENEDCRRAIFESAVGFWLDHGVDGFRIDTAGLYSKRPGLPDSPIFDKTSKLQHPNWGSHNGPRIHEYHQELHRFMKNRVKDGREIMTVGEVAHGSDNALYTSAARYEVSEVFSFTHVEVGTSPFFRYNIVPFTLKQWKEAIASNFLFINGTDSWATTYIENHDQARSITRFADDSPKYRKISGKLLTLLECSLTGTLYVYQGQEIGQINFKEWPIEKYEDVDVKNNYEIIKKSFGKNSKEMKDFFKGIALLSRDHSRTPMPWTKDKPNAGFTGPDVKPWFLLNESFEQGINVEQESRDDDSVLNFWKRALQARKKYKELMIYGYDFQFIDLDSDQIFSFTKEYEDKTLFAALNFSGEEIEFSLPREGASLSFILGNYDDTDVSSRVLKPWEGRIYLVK
Experimental: The target substituted imidazo[1,2-c]quinazolines 6a–c and 11a–o were evaluated for their in vitro Saccharomyces cerevisiae α-glucosidase inhibitory activities to investigate the role of substituents on the imidazole moiety and the phenyl ring originated from benzaldehyde moieties.
α-Glucosidase enzyme ((EC3.2.1.20, Saccharomyces cerevisiae, 20 U mg^−1) and substrate (p-nitrophenyl glucopyranoside) were purchased from Sigma-Aldrich. Enzyme was prepared in potassium phosphate buffer (pH 6.8, 50 mM), as well as substituted benzo[4,5]imidazo[1,2-c]quinazoline 6a-c and highly-substituted imidazo[1,2-c]quinazolines 11a–o were dissolved in DMSO (10% final concentration). The various concentrations of these compounds ([…]), enzyme solution ([…]) and potassium phosphate buffer ([…]) were added in the 96-well plate and incubated at 37 °C for 10 min. Afterwards, the substrate ([…], 4 mM) was added to the mentioned mixture and allowed to incubate at 37 °C for 20 min. […] The percentage of enzyme inhibition was calculated using Eq. (6) and IC50 values were obtained from non-linear regression curve using the Logit method.6 %Inhibition=Abscontrol-Abssample/Abscontrol×100

α-glucosidase [2] = target: T2, α-glucosidase (Saccharomyces cerevisiae, UniProt P53341); assay: Circular dichroism spectroscopy, secondary structure content of the enzyme; parameters: purchased Sigma-Aldrich; conditions: inhibitor 12.4 μM
T2 sequence (P53341 whole entry): as above
Experimental: The difference between the absorption of right and left circularly polarized light is measured in circular dichroism spectroscopy (CD) in order to reveal the chiral environment around amino acid residues. The CD spectrum in the far ultraviolet region ranged from 190 to 240 nm is mainly used to provide valuable information about the arrangement of protein bonds and secondary structure of the proteins in dilute solutions. There are several principal conformations like α-helix, extended β structure (or β-sheet), β-turn, and random coil (which are unordered structures). They are characterized as follow: α-helix structures by negative CD bands at 222 and 208 nm and a positive CD band at approximately 190 nm; β-sheet structures by a negative CD band in the region of 210–220 nm; β-turn structures by a negative CD band between 180 and 190 nm; and the spectra of random coil by a characteristic negative CD band in region of 200 nm[49],[50].
To study the impact of imidazo[1,2-c]quinazoline 11j on the secondary structure of α-glucosidase (Fig. 4b), the CD spectra (180–250 nm) was measured and analyzed using the CDNN software to be compared with the native enzyme (Fig. 4a). […] Moreover, this compound can change the secondary structure of α-glucosidase, resulting to inhibit its performance.

α-glucosidase [3] = target: T2, α-glucosidase; assay: Fluorescence spectroscopy (quenching) measurements; format: binding; parameters: purchased Sigma-Aldrich
Experimental: In present study, fluorescence spectroscopy measurement was performed between imidazo[1,2-c]quinazoline 11j and the active site of enzyme using a Synergy HTX multi-mode reader (Biotek Instruments, Winooski, VT, USA) equipped with a quartz cuvette of 10 mm. The excitation wavelength was 280 nm, and the emission spectra were reported at five different temperatures in the range from 300 to 450 nm with 10 accumulations for each collection point. The emission spectrum was adjusted for the background fluorescence from the buffer solution and for the inner filter effect promoted by the inhibitors (Fig. 5).
There are two types of fluorescence quenching: dynamic and static. Dynamic quenching arises from the collisional encounter between the fluorophore (tryptophan residues) and the quencher (inhibitor). […] Therefore, the biding parameters can be determined as follow:
The reaction is determined as P + D → DnP in which P is the protein, D is the drug molecule (inhibitor), and DnP is the new complex molecule. The binding constant for this complex for this complex, denoted as KA, is calculated using Eq. (1). […] Since the number of the binding site of protein and drug is n and 1, respectively, the equivalent concentration of the complex DnP is n[DnP]. Moreover, the equivalent concentration of the protein is n[P], and the equivalent concentration of the drug is [D]:1 KA=nDnP/DnP
The total concentration of protein is [Pt], and the total concentration of the drug is [Dt]; therefore, [Pt] = [Pf] + [DnP] and [Df] = [Dt]−n[DnP]. Since protein (P) is the only fluorescence in present study, thus:2 F0/F=Pt/Pf
F and F0 are the fluorescence intensity of protein in the presence and absence of inhibitor, respectively. Therefore, the relationship between the fluorescence intensity and the total concentration of the drug could be deduced:3 F0/F=KADtF0/F0-F-n KAPt
As the total concentration of protein was kept at a constant value (at 46 nM), while the total concentration of the drug was changed. Using the Eq. (3), a plot of F0/F Vs. [Dt] F0/(F0−F) was obtained, as depicted in Fig. 6.
To this aim, different solutions containing different concentrations (0 to 1.0 µM) of the inhibitor and α-glucosidase (3 ml, 0.1 U ml^−1) were held for 10 min to equilibrate before measurements. Moreover, the fluorescence of the buffer containing compound 11j in the absence of the enzyme were subtracted as the background fluorescence. Afterwards, at the excitation wavelength of 280 nm, the fluorescence emission spectra were measured from 300 to 450 nm using a Synergy HTX multi-mode reader (Biotek Instruments, Winooski, VT, USA) equipped with a 1.0 cm quartz cell holder.

α-glucosidase [4] = target: T2, α-glucosidase; assay: Thermodynamic analysis of binding to α-glucosidase; parameters: purchased Sigma-Aldrich
Text: This fluorescent intensity data was plotted as a function of temperature and binding constants; therefore, thermodynamic profile including ΔG (free energy change), ΔH (enthalpy change), and ΔS (entropy change) could be computed to determine the type of non-covalent forces between imidazo[1,2-c]quinazoline 11j and binding site of α‑glucosidase. These forces between the protein and inhibitor can be categorized into four groups: hydrogen bond, van der Waals forces, electrostatic attraction, and hydrophobic interactions. To identify the type of interactions in present study, thermodynamic parameters must be calculated using following equations:4 lnKA2/KA1=ΔH/R1/T2-1/T1 5 ΔG=-RT ln KA=ΔH-TΔS
Already, there was some information including binding constants (KA2 = 36.6 × 10^4 and KA1 = 40.5 × 10^4) as well as initial and final temperatures (T1 = 20 ℃ (293 K) and T2 = 60 ℃ (333 K)). Therefore, using Eq. (4), ΔH is obtained − 2.17 (kJ mol^–1) and subsequently using Eq. (5), ΔG and ΔS values are calculated − 20.6 (kJ mol^–1) and 62.9 (J mol^–1 K^–1), respectively.
Considering the sign of these thermodynamic parameters, the type of non-covalent force could be determined as follow: (1) ΔH > 0, ΔS > 0, hydrophobic interactions; (2) ΔH < 0, ΔS > 0, van der Waals forces; (3) ΔH < 0, ΔS < 0, hydrogen bond and van der Waals interactions; and (4) ΔH < 0, ΔS > 0, electrostatic interactions.

α-glucosidase [5] = target: T2, α-glucosidase; assay: Enzyme kinetic study (Lineweaver–Burk plot)
Experimental: [I] is the concentration of inhibitor.
Therefore, the slope of Lineweaver Burk plot is equal to:10 Slope=Km/Vmax1+I/KI
The Kmapp value is calculated by Eq. (6):11 Kmapp=Km1+I/KI
[I], Eq. (7) can be used for the calculation of KI[59],[60]:12 Kmapp=Km+Km/KII

SMILES | IC50 [1] [µM] | also measured
Clc1ccc(-c2nc3ccccc3c3nc4ccccc4n23)cc1 [6b, 6-(4-chlorophenyl)benzo[4,5]imidazo[1,2-c]quinazoline] | 308.33 ± 0.06 | –
COc1ccc(-c2nc3ccccc3c3nc4ccccc4n23)cc1 [6c, 6-(4-methoxyphenyl)benzo[4,5]imidazo[1,2-c]quinazoline] | 124.3 ± 0.37 | –
c1ccc(-c2nc3c4ccccc4nc(-c4ccccc4)n3c2-c2ccccc2)cc1 [11a, 2,3,5-triphenylimidazo[1,2-c]quinazoline] | 209.15 ± 0.04 | –
Cc1ccc(-c2nc3ccccc3c3nc(-c4ccccc4)c(-c4ccccc4)n23)cc1 [11e, 5-(4-methylphenyl)-2,3-diphenylimidazo[1,2-c]quinazoline] | 124.5 ± 0.29 | –
COc1cccc(-c2nc3ccccc3c3nc(-c4ccccc4)c(-c4ccccc4)n23)c1 [11h, 5-(3-methoxyphenyl)-2,3-diphenylimidazo[1,2-c]quinazoline] | 47.92 ± 0.18 | –
COc1cccc(-c2nc3ccccc3c3nc(-c4ccccc4)c(-c4ccccc4)n23)c1OC [11j, 5-(2,3-dimethoxyphenyl)-2,3-diphenylimidazo[1,2-c]quinazoline] | – | α-Helix content of α-glucosidase (α-glucosidase [2]; native enzyme 28.8): 50.3%; ꞵ-Turn content of α-glucosidase (α-glucosidase [2]; native enzyme 28.8): 49.7%; Random coil content of α-glucosidase (α-glucosidase [2]; native enzyme 42.4): 0%; number of binding sites n (α-glucosidase [3]; 20 ℃): 0.3; binding constant KA (α-glucosidase [3]; 20 ℃, protein 46 nM): 40.5 × 10^4 L mol^–1 s^–1; binding constant KA (α-glucosidase [3]; 60 ℃): 36.6 × 10^4 L mol^–1 s^–1; fluorescence quenching mechanism (α-glucosidase [3]; tryptophan residues as fluorophores): static quenching; ΔS (entropy change) (α-glucosidase [4]; Eq. (5)): 62.9 J mol^–1 K^–1; acting non-covalent force between inhibitor and enzyme (α-glucosidase [4]; from signs of ΔH and ΔS): electrostatic forces; Ki (α-glucosidase [5]): 11 µM; type of inhibition (α-glucosidase [5]; Lineweaver–Burk plot: Km increased, Vmax did not change): competitive
COc1ccc(-c2nc3ccccc3c3nc(-c4ccccc4)c(-c4ccccc4)n23)cc1OC [11m, 5-(3,4-dimethoxyphenyl)-2,3-diphenylimidazo[1,2-c]quinazoline] | 21.6 ± 0.32 | –
COc1cc(-c2nc3ccccc3c3nc(-c4ccccc4)c(-c4ccccc4)n23)cc(Br)c1OC [11o, 5-(3-bromo-4,5-dimethoxyphenyl)-2,3-diphenylimidazo[1,2-c]quinazoline] | 154.9 ± 0.36 | –

Second part, led by results:

IC50 [1] [µM] | SMILES | also measured
256.48 ± 0.14 | c1ccc(-c2nc3ccccc3c3nc4ccccc4n23)cc1 [6a, 6-phenylbenzo[4,5]imidazo[1,2-c]quinazoline] | –
273.28 ± 0.09 | Clc1ccc(-c2nc3ccccc3c3nc(-c4ccccc4)c(-c4ccccc4)n23)cc1 [11b, 5-(4-chlorophenyl)-2,3-diphenylimidazo[1,2-c]quinazoline] | –
246.49 ± 0.18 | Clc1cccc(-c2nc3ccccc3c3nc(-c4ccccc4)c(-c4ccccc4)n23)c1 [11c, 5-(3-chlorophenyl)-2,3-diphenylimidazo[1,2-c]quinazoline] | –
253.1 ± 0.26 | Clc1ccccc1-c1nc2ccccc2c2nc(-c3ccccc3)c(-c3ccccc3)n12 [11d, 5-(2-chlorophenyl)-2,3-diphenylimidazo[1,2-c]quinazoline] | –
168.36 ± 0.15 | CN(C)c1ccc(-c2nc3ccccc3c3nc(-c4ccccc4)c(-c4ccccc4)n23)cc1 [11f, 4-(2,3-diphenylimidazo[1,2-c]quinazolin-5-yl)-N,N-dimethylaniline] | –
82.64 ± 0.03 | COc1ccc(-c2nc3ccccc3c3nc(-c4ccccc4)c(-c4ccccc4)n23)cc1 [11g, 5-(4-methoxyphenyl)-2,3-diphenylimidazo[1,2-c]quinazoline] | –
24.25 ± 0.13 | COc1ccccc1-c1nc2ccccc2c2nc(-c3ccccc3)c(-c3ccccc3)n12 [11i, 5-(2-methoxyphenyl)-2,3-diphenylimidazo[1,2-c]quinazoline] | –
14.32 ± 0.05 | COc1ccc(-c2nc3ccccc3c3nc(-c4ccccc4)c(-c4ccccc4)n23)c(OC)c1 [11k, 5-(2,4-dimethoxyphenyl)-2,3-diphenylimidazo[1,2-c]quinazoline] | –
64.29 ± 0.54 | COc1ccc(OC)c(-c2nc3ccccc3c3nc(-c4ccccc4)c(-c4ccccc4)n23)c1 [11l, 5-(2,5-dimethoxyphenyl)-2,3-diphenylimidazo[1,2-c]quinazoline] | –
46.73 ± 0.07 | COc1cc(-c2nc3ccccc3c3nc(-c4ccccc4)c(-c4ccccc4)n23)cc(OC)c1OC [11n, 2,3-diphenyl-5-(3,4,5-trimethoxyphenyl)imidazo[1,2-c]quinazoline] | –
